Experimental data reported in article PMC3404986, “Pyridoxal 5′-Phosphate Is a Slow Tight Binding Inhibitor of E. coli Pyridoxal Kinase” (PLoS ONE, 2012).

Assays:
[1] = molecular target: T1, ePL kinase (E. coli pyridoxal kinase 1, PL kinase1) (Escherichia coli, UniProt P40191); assay: Sephadex G-50 spin column, absorbance of bound PLP at […] nm; conditions: PLP without nucleotide, 0.2 mM MgCl2, pH 7.5, 37°C; slow tight binding inhibitor; covalent, reversible aldimine, K229 suggested
T1 construct: gene pdxK; full length, recombinant from E. coli; wild type untagged (as previously described); K229Q His-tagged (C-terminus; pET28a NdeI/EcoRI)

[2] = molecular target: T1, ePL kinase (E. coli pyridoxal kinase 1, PL kinase1); assay: CD at […] nm, bound PLP removed by PLP phosphatase; format: binding; conditions: complex formed from PL + MgATP; 10 µM PLP phosphatase as trap, pH 7.5, 37°C; covalent, reversible aldimine; only part of the PLP released
[3] = molecular target: T1, ePL kinase (E. coli pyridoxal kinase 1, PL kinase1); assay: size-exclusion chromatography, then coupled enzymatic ADP assay of denatured complex; format: binding; conditions: complex from PLP 0.5 mM + MgADP 1 mM + MgCl2 0.5 mM, pH 7.5, 37°C, 1 h; ternary complex with PLP
Text: size-exclusion chromatography, then coupled enzymatic ADP assay of denatured complex on ePL kinase (E. coli pyridoxal kinase 1, PL kinase1)

Cc1ncc(COP(=O)(O)O)c(C=O)c1O [PLP]
Rate of complex formation [1]: 0.16 min⁻¹
rate of dissociation [2]: 0.012 min⁻¹

Nc1ncnc2c1ncn2[C@@H]1O[C@H](COP(=O)(O)OP(=O)(O)O)[C@@H](O)[C@H]1O [MgADP]
%ADP [3]: 43%
